# Read-outs that look alike come from different tables or passages of the source.
# Experiments:
# [1] = Population PK model (NONMEM) of plasma CBZ and 3 metabolites after oral CBZ; conditions: for % Interindividual variability of V2: V2 shared by the 3 metabolites; for clearance: human, plasma, oral; for V2, volume of distribution of metabolites: same V2 estimated for CBZE, 2OH-CBZ and 3OH-CBZ, apparent; for effect of concomitant treatment as covariate on CBZ clearance/metabolism: categorical covariate on CLTOT in the population PK model, small numbers of subjects
# [2] = system: microsomal epoxide hydrolase; conditions: concurrent brivaracetam therapy in patients on CBZ; cited from earlier work
# [3] = parameters: method as in PMID 6491988; conditions: fixed, not estimated; CL2 (to CBZE)=CLTOT*(1-FM1), CL3=CL4=CLTOT*FM1/2; cited from earlier work
# [4] = cited from earlier work
# [5] = parameters: method as in PMID 17382827; conditions: patients treated with CBZ, cited from earlier work
# [6] = 70-kg patient prescribed 400 mg CBZ; model assumes 0.65 of CBZ converted to CBZE; cited from earlier work
# [7] = final model, log-normal distribution
compound,measurement,setting,value
"NC(=O)N1c2ccccc2C=Cc2cc(O)ccc21 [2OH‐CBZ, 2‐hydroxycarbamazepine]",% Interindividual variability of CL3E,[1]; [7],42.3%
same,% Interindividual variability of V2,[1]; [7],149.7%
same,clearance,[1],12100 mL/min
same,CL3E induction effect,[1]; multiplier (fold) on CL3E for induced period vs non-induced,1.63
same,"V2, volume of distribution of metabolites",[1]; population mean,39.2 L
"NC(=O)N1c2ccccc2C=Cc2ccc(O)cc21 [3OH‐CBZ, 3‐hydroxycarbamazepine]",% Interindividual variability of CL4E,[1]; [7],34.5%
same,% Interindividual variability of V2,[1]; [7],149.7%
same,clearance,[1],9050 mL/min
same,"V2, volume of distribution of metabolites",[1]; population mean,39.2 L
CCC[C@@H]1CC(=O)N([C@@H](CC)C(N)=O)C1 [Brivaracetam],"rise in CBZE levels, median",[2],83.9%
same,"rise in CBZE levels, range",[2],57.9–341.7%
"NC(=O)N1c2ccccc2C=Cc2ccccc21 [CBZ, Carbamazepine]",FM1 (metabolite fraction),[3],0.64
same,% Interindividual variability of CLTOT,[1]; [7],25.3%
same,% Interindividual variability of FM1,[1]; [7],6.3%
same,% Interindividual variability of KASTAR,[1]; [7],75.3%
same,% Interindividual variability of V1,[1]; [7],13.6%
same,"V1, central distribution volume of CBZ","[1]; population mean, final model, apparent (V/F)",161 L
same,"CLTOT, total clearance of CBZ","[1]; population mean, final model, oral dosing, apparent (CL/F), typical value non-induced, 400 mg daily dose, no phenytoin",1.96 L/h
same,KASTAR,"[1]; population mean, absorption rate constant KA=CLTOT/V1+KAstar",0.409 h⁻¹
same,fraction of CBZ converted to CBZE assumed in this model,[4],0.36
same,parent CBZ primarily converted to CBZE,[4]; prior mass balance information,36%
same,fraction of CBZ converted to CBZE assumed in the model of Jiao et al.,[4]; ref Jiao et al. (58),0.65
same,patients experiencing a hypersensitivity reaction,[5],up to 10%
same,patients experiencing a hypersensitivity reaction,[5]; listed as Carbamazepine,~ 10%
"NC(=O)N1c2ccccc2C2OC2c2ccccc21 (stereo not shown) [CBZE, carbamazepine 10,11‐epoxide]",reduction of clearance of CBZE,[1]; EPHX1-416G/G genotype (3 subjects) compared with EPHX1-416G/A and -416A/A,approximately 50%
same,% Interindividual variability of CL2E,[1]; [7],27.9%
same,% Interindividual variability of V2,[1]; [7],149.7%
same,clearance,[1],162 mL/min
same,Cov.Eff.(EPHXAGHOM on CL2E),[1]; multiplier on CBZE clearance in EPHX1-416G/G homozygotes (n=3) vs G/A and A/A,0.502
same,"V2, volume of distribution of metabolites",[1]; population mean,39.2 L
same,CL estimate for CBZE in a previous population PK model,[6],28 L/h
NC(=O)OCC(COC(N)=O)c1ccccc1 [felbamate],effect of concomitant treatment as covariate on CBZ clearance/metabolism,[1],None of those antiepileptic drugs (AEDs) achieved a significant effect
COc1ccc2[nH]c([S+]([O-])Cc3ncc(C)c(OC)c3C)nc2c1 (stereo not shown) [omeprazole],effect of concomitant treatment as covariate on CBZ clearance/metabolism,[1],Neither was found to affect metabolism of CBZ significantly
CCC1(c2ccccc2)C(=O)NC(=O)NC1=O [phenobarbital],effect of concomitant treatment as covariate on CBZ clearance/metabolism,[1],None of those antiepileptic drugs (AEDs) achieved a significant effect
